Laboratory results as given in patent US12492188B2, “1H-benzo[D]imidazole derivatives as TLR9 inhibitors for the treatment of fibrosis” (BRISTOL-MYERS SQUIBB COMPANY, priority 2020, dated 2025).
Like-named read-outs stand apart in the source and are kept apart here.

Target: T1, human TLR9 (Homo sapiens, UniProt Q9NR96)
T1 construct: host or cells: HEK-Blue cells (HEK293-derived reporter line)
T1 sequence (Q9NR96 26-1032): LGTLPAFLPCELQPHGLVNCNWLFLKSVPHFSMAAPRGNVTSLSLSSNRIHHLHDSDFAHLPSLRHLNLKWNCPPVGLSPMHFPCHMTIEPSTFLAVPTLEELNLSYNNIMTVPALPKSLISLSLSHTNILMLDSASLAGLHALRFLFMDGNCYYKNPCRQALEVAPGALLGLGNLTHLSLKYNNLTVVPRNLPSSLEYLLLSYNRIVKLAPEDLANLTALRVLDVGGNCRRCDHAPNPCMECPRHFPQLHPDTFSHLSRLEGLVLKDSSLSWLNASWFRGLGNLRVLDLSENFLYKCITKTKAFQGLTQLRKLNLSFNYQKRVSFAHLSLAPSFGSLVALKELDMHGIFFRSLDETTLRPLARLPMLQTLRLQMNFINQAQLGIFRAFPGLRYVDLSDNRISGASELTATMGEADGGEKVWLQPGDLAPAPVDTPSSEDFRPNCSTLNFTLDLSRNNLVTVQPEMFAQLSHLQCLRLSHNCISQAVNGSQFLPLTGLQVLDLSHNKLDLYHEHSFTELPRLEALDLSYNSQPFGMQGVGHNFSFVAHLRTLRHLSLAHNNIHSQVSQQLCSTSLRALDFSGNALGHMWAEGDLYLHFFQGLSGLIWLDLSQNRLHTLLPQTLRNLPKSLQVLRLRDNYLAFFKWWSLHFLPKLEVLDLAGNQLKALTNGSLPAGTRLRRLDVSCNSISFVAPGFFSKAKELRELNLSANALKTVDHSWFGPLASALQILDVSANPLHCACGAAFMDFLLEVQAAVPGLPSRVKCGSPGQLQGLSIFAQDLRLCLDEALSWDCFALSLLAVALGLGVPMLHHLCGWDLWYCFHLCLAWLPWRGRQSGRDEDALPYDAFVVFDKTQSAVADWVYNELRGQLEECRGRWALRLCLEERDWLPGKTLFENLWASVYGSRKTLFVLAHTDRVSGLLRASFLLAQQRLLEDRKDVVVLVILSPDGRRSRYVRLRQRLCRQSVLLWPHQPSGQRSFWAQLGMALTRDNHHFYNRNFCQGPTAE
Assay: TLR9 inhibition reporter assay (HEK-Blue cells, secreted embryonic alkaline phosphatase reporter)
Format: cell-based
Method: TLR7/8/9 Inhibition Reporter Assays
HEK-Blue™-cells (Invivogen) overexpressing human TLR7, TLR8 or TLR9 receptors were used for screening inhibitors of these receptors using an inducible SLAP (secreted embryonic alkaline phosphatase) reporter gene under the control of the […] minimal promoter fused to five NF-κB and AP-1-binding sites. Briefly, cells are seeded into Greiner 384 well plates (15000 cells per well for TLR7, 20,000 for TLR8 and 25,000 for TLR9) and then treated with test compounds in DMSO to yield a final dose response concentration range of 0.05 nM-50 μM. After a 30 minute compound pre-treatment at room temperature, the cells are then stimulated with a TLR7 ligand (gardiquimod at a final concentration of 7.5 μM), TLR8 ligand (R848 at a final concentration of 15.9 μM) or TLR9 ligand (ODN2006 at a final concentration of 5 nM) to activate NF-κB and AP-1 which induce the production of SLAP. After a 22 hour incubation at 37° C., […], SLAP levels are determined with the addition of HEK-Blue™ Detection reagent (Invivogen), a cell culture medium that allows for detection of SLAP, according to manufacturer's specifications. The percent inhibition is determined as the […] in the HEK-Blue signal present in wells treated with agonist plus DMSO alone compared to wells treated with a known inhibitor.

[1] = HEK-Blue cells overexpressing human TLR9, stimulated with ODN2006 5 nM, read-out: TLR 9 IC50
[2] = HEK-Blue cells overexpressing human TLR9, stimulated with ODN2006 5 nM, 22 hour incubation, reporter readout
[3] = HEK-Blue human TLR9 reporter cells

Structure (SMILES)	IC50 [µM]	IC50 [1] [µM]	IC50 [2] [µM]	IC50 [3] [µM]
COc1ccc(-c2nc3cc(F)c(C4CCN(C5CCN(C(C)C)CC5)CC4)cc3[nH]2)cc1OC [Example 129, 2-(3,4-dimethoxyphenyl)-5-fluoro-6-(1′-isopropyl-[1,4′-bipiperidin]-4-yl)-1H-benzo[d]imidazole]	0.19	0.185		
Cc1cc(C2CCN(C3CCN(CC(C)C)CC3)CC2)cc2[nH]c(-c3ccc4c(c3)OC(F)(F)O4)nc12 [Example 65, 2-(2,2-difluorobenzo[d][1,3]dioxol-5-yl)-6-(1′-isobutyl-[1,4′-bipiperidin]-4-yl)-4-methyl-1H-benzo[d]imidazole tris(2,2,2-trifluoroacetate)]		0.297	0.3	
CN(C)c1ccc(-c2nc3ccc(-c4ccc(CN5CCC(N(C)C)CC5)cc4)cc3n2C)cc1 [Example 425, 1-(4-(2-(4-(dimethylamino)phenyl)-1-methyl-1H-benzo[d]imidazol-6-yl)benzyl)-N,N-dimethylpiperidin-4-amine]			0.061	
COc1ccc(-c2nc3c(F)cc(C4CCN(C5CCN(CC(C)C)CC5)CC4)cc3[nH]2)cc1OC [Example 127, 2-(3,4-dimethoxyphenyl)-4-fluoro-6-(1′-isobutyl-[1,4′-bipiperidin]-4-yl)-1H-benzo[d]imidazole]	0.031	0.031		
Cc1cc(CN2CCC(c3cc(C)c4nc(-c5ccc(S(C)(=O)=O)cc5)n(C)c4c3)CC2)cc(C)n1 [Example 418, 6-(1-((2,6-dimethylpyridin-4-yl)methyl)piperidin-4-yl)-1,4-dimethyl-2-(4-(methylsulfonyl)phenyl)-1H-benzo[d]imidazole]		2.51	2.5	
COc1cc(-c2nc3c(C)cc(C4CCN(C5CC6CCC(C5)N6C5CCC5)CC4)cc3[nH]2)cn2ncnc12 (stereo not shown) [Example 361, 6-(6-(1-(8-cyclobutyl-8-azabicyclo[3.2.1]octan-3-yl)piperidin-4-yl)-4-methyl-1H-benzo[d]imidazol-2-yl)-8-methoxy-[1,2,4]triazolo[1,5-a]pyridine]		0.02		0.021
Cc1cc(-c2ccc(OC3CCN(CC(C)C)CC3)cc2)cc2c1nc(-c1ccc(S(C)(=O)=O)cc1)n2C [Example 417, 6-(4-((1-isobutylpiperidin-4-yl)oxy)phenyl)-1,4-dimethyl-2-(4-(methylsulfonyl)phenyl)-1H-benzo[d]imidazole]		0.8	0.8	
Cc1cc(C2CCN(C3CCN(CC(C)C)CC3)CC2)cc2[nH]c(-c3ccc(OC(F)F)cc3)nc12 [Example 78, 2-(4-(difluoromethoxy)phenyl)-6-(1′-isobutyl-[1,4′-bipiperidin]-4-yl)-4-methyl-1H-benzo[d]imidazole]		0.267	0.27	
CS(=O)(=O)c1ccc(-c2nc3c(F)cc(-c4ccc(CN5CC6(C5)CN(C5CCOCC5)C6)cc4)cc3n2C2CC2)cc1 [Example 412, 1-cyclopropyl-4-fluoro-2-(4-(methylsulfonyl)phenyl)-6-(4-((6-(tetrahydro-2H-pyran-4-yl)-2,6-diazaspiro[3.3]heptan-2-yl)methyl)phenyl)-1H-benzo[d]imidazole]		0.077	0.077	
Cc1cc(C2CCN(C3CC4CCC(C3)N4C3CC3)CC2)cc2c1nc(-c1ccc(S(C)(=O)=O)c(F)c1)n2C (stereo not shown) [Example 345, 6-(1-(8-cyclopropyl-8-azabicyclo[3.2.1]octan-3-yl)piperidin-4-yl)-2-(3-fluoro-4-(methylsulfonyl)phenyl)-1,4-dimethyl-1H-benzo[d]imidazole]		0.132		0.13
COc1cc(-c2nc3c(C)cc(C4CCN(C5CC6CCC(C5)N6C5CCC5)CC4)cc3n2C)cn2ncnc12 (single isomer, unassigned) [Example 356, 6-(6-(1-(8-cyclobutyl-8-azabicyclo[3.2.1]octan-3-yl)piperidin-4-yl)-1,4-dimethyl-1H-benzo[d]imidazol-2-yl)-8-methoxy-[1,2,4]triazolo[1,5-a]pyridine]		0.041		0.041
Cc1cc(C2CCN(C3CCN(CC(C)C)CC3)CC2)cc2[nH]c(-c3ccc(OC(F)(F)F)c(Cl)c3)nc12 [Example 73, 2-(3-chloro-4-(trifluoromethoxy)phenyl)-6-(1′-isobutyl-[1,4′-bipiperidin]-4-yl)-4-methyl-1H-benzo[d]imidazole tris(2,2,2-trifluoroacetate)]		0.27	0.27	
COc1ccc(-c2nc3c(C)cc(C4CCN(C5CC6CCC(C5)N6CC5CC5)CC4)cc3n2C)cc1OC (stereo not shown) [Example 149, 6-(1-(8-(cyclopropylmethyl)-8-azabicyclo[3.2.1]octan-3-yl)piperidin-4-yl)-2-(3,4-dimethoxyphenyl)-1,4-dimethyl-1H-benzo[d]imidazole]	0.047	0.047		
CC(C)CN1CC2(CN(Cc3ccc(-c4cc(F)c5nc(-c6ccc(S(C)(=O)=O)cc6)n(C6CC6)c5c4)cc3)C2)C1 [Example 411, 1-cyclopropyl-4-fluoro-6-(4-((6-isobutyl-2,6-diazaspiro[3.3]heptan-2-yl)methyl)phenyl)-2-(4-(methylsulfonyl)phenyl)-1H-benzo[d]imidazole]		0.0009	0.00085	
COc1ccc(-c2nc3c(F)cc(C4CCN(C5CCN(C(C)C)CC5)CC4)cc3[nH]2)cc1OC [Example 83, 2-(3,4-dimethoxyphenyl)-4-fluoro-6-(1′-isopropyl-[1,4′-bipiperidin]-4-yl)-1H-benzo[d]imidazole]			0.21	

The remaining lines, values ahead:

IC50 [µM]	IC50 [1] [µM]	IC50 [2] [µM]	IC50 [3] [µM]	Structure (SMILES)
0.16	0.163			Cc1cc(C2CCN(C3CC4CCC(C3)N4CC3CC3)CC2)cc2c1nc(-c1ccc(S(C)(=O)=O)cc1)n2C (single isomer, unassigned) [Example 155, 6-(1-(8-(cyclopropylmethyl)-8-azabicyclo[3.2.1]octan-3-yl)piperidin-4-yl)-1,4-dimethyl-2-(4-(methylsulfonyl)phenyl)-1H-benzo[d]imidazole]
0.34	0.339			Cc1cc(C2CCN(C3CC4CCC(C3)N4CC3CCC3)CC2)cc2c1nc(-c1ccc(S(C)(=O)=O)cc1)n2C (single isomer, unassigned) [Example 157, 6-(1-(8-(cyclobutylmethyl)-8-azabicyclo[3.2.1]octan-3-yl)piperidin-4-yl)-1,4-dimethyl-2-(4-(methylsulfonyl)phenyl)-1H-benzo[d]imidazole]
0.14	0.136			Cc1cc(C2CCN(C3CCCN(CC(C)C)CC3)CC2)cc2c1nc(-c1ccc(S(C)(=O)=O)cc1)n2C (stereo not shown) [Example 136, 6-(1-(1-isobutylazepan-4-yl)piperidin-4-yl)-1,4-dimethyl-2-(4-(methylsulfonyl)phenyl)-1H-benzo[d]imidazole]
	0.084		0.084	Cc1cc(C2CCN(C3CC4CCC(C3)N4CC3CC3)CC2)cc2c1nc(-c1ccc(S(C)(=O)=O)c(F)c1)n2C (stereo not shown) [Example 340, 6-(1-(8-(cyclopropylmethyl)-8-azabicyclo[3.2.1]octan-3-yl)piperidin-4-yl)-2-(3-fluoro-4-(methylsulfonyl)phenyl)-1,4-dimethyl-1H-benzo[d]imidazole]
0.019	0.019			Cc1cc(C2CCN(C3CCCN(CC4CC4)CC3)CC2)cc2c1nc(-c1ccc(S(C)(=O)=O)cc1)n2C (stereo not shown) [Example 137, 6-(1-(1-(cyclopropylmethyl)azepan-4-yl)piperidin-4-yl)-1,4-dimethyl-2-(4-(methylsulfonyl)phenyl)-1H-benzo[d]imidazole]
0.21	0.211			Cc1cc(C2CCN(C3CC4(C3)CN(C(C)C)C4)CC2)cc2c1nc(-c1ccc(S(C)(=O)=O)cc1)n2C [Example 139, 6-(1-(2-isopropyl-2-azaspiro[3.3]heptan-6-yl)piperidin-4-yl)-1,4-dimethyl-2-(4-(methylsulfonyl)phenyl)-1H-benzo[d]imidazole]
